ChEMBL document CHEMBL1909046, “DrugMatrix in vitro pharmacology data”
pIC50, pKi: −log10 of the molar value.

Tests used:
[1] = target: T1, Polyunsaturated fatty acid lipoxygenase ALOX15 (Oryctolagus cuniculus, UniProt P12530); assay: biochemical; type: tissue-based, Reticulocytes; details: reticulocytes;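 further: inhibition of 15-lipoxygenase enzyme activity measured with linoleic acid as the substrate; in other assays of this panel Not Active means under 50% inhibition at 10 µM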
T1 sequence (P12530 whole entry): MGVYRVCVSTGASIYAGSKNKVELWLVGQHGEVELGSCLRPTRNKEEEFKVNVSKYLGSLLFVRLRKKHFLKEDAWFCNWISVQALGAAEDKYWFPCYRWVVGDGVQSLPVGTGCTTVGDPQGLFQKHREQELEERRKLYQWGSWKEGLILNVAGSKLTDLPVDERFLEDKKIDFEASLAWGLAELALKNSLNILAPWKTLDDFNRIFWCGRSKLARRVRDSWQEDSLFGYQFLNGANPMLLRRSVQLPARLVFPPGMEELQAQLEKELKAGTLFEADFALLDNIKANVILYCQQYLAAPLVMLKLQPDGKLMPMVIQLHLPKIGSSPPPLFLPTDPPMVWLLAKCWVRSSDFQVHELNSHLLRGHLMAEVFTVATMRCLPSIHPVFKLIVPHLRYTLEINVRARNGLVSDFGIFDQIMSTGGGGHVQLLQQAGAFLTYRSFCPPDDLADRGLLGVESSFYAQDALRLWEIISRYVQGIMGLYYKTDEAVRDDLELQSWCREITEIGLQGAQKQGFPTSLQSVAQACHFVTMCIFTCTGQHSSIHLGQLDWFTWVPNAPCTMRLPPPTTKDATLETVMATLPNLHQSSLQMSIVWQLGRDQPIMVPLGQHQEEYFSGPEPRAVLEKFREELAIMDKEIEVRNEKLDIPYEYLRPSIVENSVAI

Melanocortin receptor 4 = Melanocortin receptor 4 (Homo sapiens, UniProt P32245); type: cell membranes, HEK293, Membrane; details: hek293; further: in other assays of this panel Not Active means under 50% inhibition at 10 µM
Sequence of Melanocortin receptor 4 (P32245 whole entry): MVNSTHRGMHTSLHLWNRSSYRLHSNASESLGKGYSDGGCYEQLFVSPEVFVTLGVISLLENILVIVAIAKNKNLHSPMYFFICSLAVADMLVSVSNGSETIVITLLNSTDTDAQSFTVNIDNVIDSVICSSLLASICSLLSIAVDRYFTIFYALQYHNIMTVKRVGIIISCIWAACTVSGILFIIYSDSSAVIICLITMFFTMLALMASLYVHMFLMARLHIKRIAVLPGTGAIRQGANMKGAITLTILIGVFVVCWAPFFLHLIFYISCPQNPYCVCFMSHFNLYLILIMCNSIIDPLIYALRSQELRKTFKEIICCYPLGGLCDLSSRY

[2] = DRUGMATRIX: Atrial Natriuretic Factor (ANF) radioligand binding (ligand: [125I] ANF (rat)); type: cell membranes, Cavia porcellus, Dunkin-Hartley, Adrenal gland, Membrane; details: Not Active = under 50% inhibition at 10 µM
[3] = DRUGMATRIX: Calcium Channel Type L, Dihydropyridine radioligand binding (ligand: [3H] Nitrendipine); type: cell membranes, Rattus norvegicus, Wistar, Cerebral cortex, Membrane; details: Not Active = under 50% inhibition at 10 µM
Vasopressin V1a receptor = Vasopressin V1a receptor (Homo sapiens, UniProt P37288); type: cell membranes, Membrane; details: hek293; further: in other assays of this panel Not Active means under 50% inhibition at 10 µM
Sequence of Vasopressin V1a receptor (P37288 whole entry): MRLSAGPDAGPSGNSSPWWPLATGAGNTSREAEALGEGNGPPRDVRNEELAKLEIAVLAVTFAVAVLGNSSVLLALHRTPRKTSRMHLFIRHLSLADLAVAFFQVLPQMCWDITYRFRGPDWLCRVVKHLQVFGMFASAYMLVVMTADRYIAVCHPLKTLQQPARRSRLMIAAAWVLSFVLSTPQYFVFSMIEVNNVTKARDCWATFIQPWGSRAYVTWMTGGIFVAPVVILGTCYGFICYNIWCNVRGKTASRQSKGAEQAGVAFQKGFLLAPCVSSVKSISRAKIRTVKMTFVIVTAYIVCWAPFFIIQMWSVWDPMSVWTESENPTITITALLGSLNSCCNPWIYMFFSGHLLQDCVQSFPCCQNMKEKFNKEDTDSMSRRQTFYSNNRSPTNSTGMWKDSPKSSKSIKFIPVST

[4] = target: T2, 3-hydroxy-3-methylglutaryl-coenzyme A reductase (Homo sapiens, UniProt P04035); parameters: species or system Escherichia coli;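 further: enzyme inhibition assay of HMG-CoA reductase using radiolabeled [14C]HMG-CoA as substrate; in other assays of this panel Not Active means under 50% inhibition at 10 µM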
T2 sequence (P04035 whole entry): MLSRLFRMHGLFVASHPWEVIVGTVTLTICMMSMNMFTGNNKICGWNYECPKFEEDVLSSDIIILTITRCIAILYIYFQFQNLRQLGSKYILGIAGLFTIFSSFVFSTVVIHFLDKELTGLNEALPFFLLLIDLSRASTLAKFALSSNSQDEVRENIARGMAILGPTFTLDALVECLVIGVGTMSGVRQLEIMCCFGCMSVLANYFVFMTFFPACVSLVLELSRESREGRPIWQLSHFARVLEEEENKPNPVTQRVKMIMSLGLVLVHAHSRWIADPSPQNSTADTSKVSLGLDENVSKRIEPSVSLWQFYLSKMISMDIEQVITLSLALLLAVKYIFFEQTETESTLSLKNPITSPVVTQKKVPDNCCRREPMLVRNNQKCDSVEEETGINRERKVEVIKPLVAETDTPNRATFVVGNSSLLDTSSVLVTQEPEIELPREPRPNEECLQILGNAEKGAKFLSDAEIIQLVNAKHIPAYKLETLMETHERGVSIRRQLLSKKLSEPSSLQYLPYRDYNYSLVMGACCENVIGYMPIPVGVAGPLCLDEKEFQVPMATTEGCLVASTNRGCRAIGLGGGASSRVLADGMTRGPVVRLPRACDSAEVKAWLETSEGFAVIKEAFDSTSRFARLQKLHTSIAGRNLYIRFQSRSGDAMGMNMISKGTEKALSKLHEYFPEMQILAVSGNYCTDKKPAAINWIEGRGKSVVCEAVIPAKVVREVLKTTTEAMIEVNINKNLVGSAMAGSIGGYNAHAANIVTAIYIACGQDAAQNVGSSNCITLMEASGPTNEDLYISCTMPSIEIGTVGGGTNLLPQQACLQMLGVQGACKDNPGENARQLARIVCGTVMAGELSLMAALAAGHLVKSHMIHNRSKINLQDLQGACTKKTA

[5] = target: Tyrosine-protein kinase Fyn (Homo sapiens, UniProt P06241); assay: biochemical; type: cell-based, Insect cells; details: insect cells
Sequence of Tyrosine-protein kinase Fyn (P06241 whole entry): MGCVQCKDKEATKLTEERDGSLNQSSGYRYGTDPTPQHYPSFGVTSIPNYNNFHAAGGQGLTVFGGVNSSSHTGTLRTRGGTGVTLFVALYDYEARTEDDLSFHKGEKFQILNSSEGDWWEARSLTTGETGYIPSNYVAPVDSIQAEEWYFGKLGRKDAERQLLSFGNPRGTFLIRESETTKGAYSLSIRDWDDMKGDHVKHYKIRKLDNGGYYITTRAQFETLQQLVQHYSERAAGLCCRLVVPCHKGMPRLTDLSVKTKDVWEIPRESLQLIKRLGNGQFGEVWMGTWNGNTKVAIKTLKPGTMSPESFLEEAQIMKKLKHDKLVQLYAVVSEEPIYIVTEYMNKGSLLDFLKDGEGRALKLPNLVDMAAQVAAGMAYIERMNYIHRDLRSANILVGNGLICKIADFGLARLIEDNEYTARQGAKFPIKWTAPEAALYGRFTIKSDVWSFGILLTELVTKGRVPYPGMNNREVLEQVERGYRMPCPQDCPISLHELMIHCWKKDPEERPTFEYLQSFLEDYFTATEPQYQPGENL

With `Nc1nc2c(ncn2CCC(CO)CO)c(=O)[nH]1` [PENCICLOVIR] the IC50 [1] was “Not Active”, the IC50 (Melanocortin receptor 4) was “Not Active” and the IC50 [2] was “Not Active”. For the same compound, the Ki [2] was “Not Active”, the IC50 [3] was “Not Active” and the Ki [3] was “Not Active”. The IC50 (Vasopressin V1a receptor) was “Not Active”, the IC50 [4] was “Not Active” and the IC50 [5] was “Not Active”.

In the case of `CN(C)C(=O)Oc1cc(OC(=O)N(C)C)cc(C(O)CNC(C)(C)C)c1` (stereo not given) [BAMBUTEROL], the IC50 [1] was “Not Active”, the IC50 (Melanocortin receptor 4) was “Not Active” and the IC50 [2] was “Not Active”. The Ki [2] was “Not Active”, the IC50 [3] was “Not Active” and the Ki [3] was “Not Active”. For the same compound, the IC50 (Vasopressin V1a receptor) was “Not Active”, the IC50 [4] was “Not Active” and the IC50 [5] was “Not Active”.

With `Nc1nc(N)nc(-c2cc(Cl)ccc2Cl)n1.O=C(O)/C=C\C(=O)O` [IRSOGLADINE MALEATE] the IC50 [1] was “Not Active”, the IC50 (Melanocortin receptor 4) was “Not Active” and the IC50 [2] was “Not Active”. For the same compound, the Ki [2] was “Not Active”, the IC50 [3] was “Not Active” and the Ki [3] was “Not Active”. For the same compound, the IC50 (Vasopressin V1a receptor) was “Not Active”, the IC50 [4] was “Not Active” and the IC50 [5] was “Not Active”.

In the case of `Cc1ccc(-c2cc(C(F)(F)F)nn2-c2ccc(S(N)(=O)=O)cc2)cc1` [CELECOXIB], the IC50 [1] was “Not Active”, the IC50 (Melanocortin receptor 4) was “Not Active” and the IC50 [2] was “Not Active”. For the same compound, the Ki [2] was “Not Active”, the pIC50 ([3]; read-out: IC50) was 4.61 and the pKi ([3]; read-out: Ki) was 4.80. For the same compound, the IC50 (Vasopressin V1a receptor) was “Not Active”, the IC50 [4] was “Not Active” and the IC50 [5] was “Not Active”.

In the case of `CCC1(c2ccc(N)cc2)CCC(=O)NC1=O` (stereo not given) [AMINOGLUTETHIMIDE], the IC50 [1] was “Not Active”, the IC50 (Melanocortin receptor 4) was “Not Active” and the IC50 [2] was “Not Active”. For the same compound, the Ki [2] was “Not Active”, the IC50 [3] was “Not Active” and the Ki [3] was “Not Active”. For the same compound, the IC50 (Vasopressin V1a receptor) was “Not Active”, the IC50 [4] was “Not Active” and the IC50 [5] was “Not Active”.

In the case of `Cc1ccc(/N=C/N(C)/C=N/c2ccc(C)cc2C)c(C)c1` [AMITRAZ], the IC50 [1] was “Not Active”, the IC50 (Melanocortin receptor 4) was “Not Active” and the IC50 [2] was “Not Active”. For the same compound, the Ki [2] was “Not Active”, the IC50 [3] was “Not Active” and the Ki [3] was “Not Active”. The IC50 (Vasopressin V1a receptor) was “Not Active”, the IC50 [4] was “Not Active” and the IC50 [5] was “Not Active”.

With `C[C@H](CS)C(=O)N1CCC[C@H]1C(=O)O` [CAPTOPRIL] the IC50 [1] was “Not Active”, the IC50 (Melanocortin receptor 4) was “Not Active” and the IC50 [2] was “Not Active”. The Ki [2] was “Not Active”, the IC50 [3] was “Not Active” and the Ki [3] was “Not Active”. For the same compound, the IC50 (Vasopressin V1a receptor) was “Not Active”, the IC50 [4] was “Not Active” and the IC50 [5] was “Not Active”.

In the case of `Clc1cccc(Cl)c1NC1=NCCN1` [CLONIDINE], the IC50 [1] was “Not Active”, the IC50 (Melanocortin receptor 4) was “Not Active” and the IC50 [2] was “Not Active”. The Ki [2] was “Not Active”, the IC50 [3] was “Not Active” and the Ki [3] was “Not Active”. For the same compound, the IC50 (Vasopressin V1a receptor) was “Not Active”, the IC50 [4] was “Not Active” and the IC50 [5] was “Not Active”.

With `CCCCN1CCCC[C@H]1C(=O)Nc1c(C)cccc1C` [LEVOBUPIVACAINE] the IC50 [1] was “Not Active”, the IC50 (Melanocortin receptor 4) was “Not Active” and the IC50 [2] was “Not Active”. For the same compound, the Ki [2] was “Not Active”, the IC50 [3] was “Not Active” and the Ki [3] was “Not Active”. For the same compound, the IC50 (Vasopressin V1a receptor) was “Not Active”, the IC50 [4] was “Not Active” and the IC50 [5] was “Not Active”.

In the case of `OC(Cn1cncn1)(Cn1cncn1)c1ccc(F)cc1F` [FLUCONAZOLE], the IC50 [1] was “Not Active”, the IC50 (Melanocortin receptor 4) was “Not Active” and the IC50 [2] was “Not Active”. For the same compound, the Ki [2] was “Not Active”, the IC50 [3] was “Not Active” and the Ki [3] was “Not Active”. The IC50 (Vasopressin V1a receptor) was “Not Active”, the IC50 [4] was “Not Active” and the IC50 [5] was “Not Active”.
